Key:
[1] = system: IMR 32; experiment: In vitro cytotoxicity (SRB), IMR 32; type: cell-based, human; conditions: IMR 32, 1 × 10^−5 M, 48 h
Experimental: (§1) The human cancer cell lines procured from National Cancer Institute, Frederick, U.S.A or National Center for Cell Science; Pune, India. were used in present study. Cells were grown in tissue culture flasks in complete growth medium (RPMI-1640 medium with 2 mM glutamine, 100 μg/ml streptomycin, pH 7.4, sterilized by filtration and supplemented with 10% fetal calf serum and 100 units/ml penicillin before use) at 37° C. in an atmosphere of 5% CO2 and 90% relative humidity in a carbon dioxide incubator. The cells at subconfluent stage were harvested from the flask by treatment with trypsin (0.5% in PBS containing 0.02% EDTA) for determination of cytotoxicity. Cells with viability of more than 98% as determined by trypan blue exclusion were used for assay. […]
(§2) A stock solutions of (20 mg/ml) of test material were prepared in distilled water. […] In vitro cytotoxicity against human cancer cell lines was determined (Monks, A., Scudiero, D., Skehan, P., Shoemaker R., Paull, K., Vistica, D., Hose, C., Langley, j., Cronise, P., Vaigro-Wolff, A., Gray-Goodrich, M., Campbell, H., Mayo, J and Boyd, M. (1991). Feasibility of a high-flux anticancer drug screen using a diverse panel of cultured human tumor cell lines. J. Natl. Cancer Inst. 83, 757-766.) using 96-well tissue culture plates. […] The optical density (OD) was recorded on ELISA reader at 540 nm. […]

[2] = system: NIH OVCAR 3; experiment: In vitro cytotoxicity (SRB), NIH OVCAR 3; type: cell-based, human; conditions: NIH OVCAR 3, 1 × 10^−5 M, 48 h
Experimental: as §1, §2

[3] = system: NCI-H23; experiment: In vitro cytotoxicity (SRB), NCI-H23; type: cell-based, human; conditions: NCI-H23, 1 × 10^−5 M, 48 h
Experimental: as §1, §2

[4] = system: DU 145; experiment: In vitro cytotoxicity (SRB), DU 145; type: cell-based, human; conditions: DU 145, 1 × 10^−5 M, 48 h
Experimental: as §1, §2

[5] = system: SK N SH; experiment: In vitro cytotoxicity (SRB), SK N SH; type: cell-based, human; conditions: 48 h
Experimental: (§3) The human cancer cell lines procured from National Cancer Institute, Frederick, U.S.A or National Center for Cell Science; Pune, India. were used in present study. Cells were grown in tissue culture flasks in complete growth medium (RPMI-1640 medium with 2 mM glutamine, 100 μg/ml streptomycin, pH 7.4, sterilized by filtration and supplemented with 10% fetal calf serum and 100 units/ml penicillin before use) at 37° C. in an atmosphere of 5% CO2 and 90% relative humidity in a carbon dioxide incubator. The cells at subconfluent stage were harvested from the flask by treatment with trypsin (0.5% in PBS containing 0.02% EDTA) for determination of cytotoxicity. Cells with viability of more than 98% as determined by trypan blue exclusion were used for assay. The cell suspension of the required cell density was prepared in complete growth medium with gentamycin (50 μg/ml) for determination of cytotoxicity.
(§4) A stock solutions of (20 mg/ml) of test material were prepared in distilled water. The stock solutions were serially diluted with complete growth medium containing 50 μg/ml of gentamycin to obtain working test solutions of required concentrations. In vitro cytotoxicity against human cancer cell lines was determined (Monks, A., Scudiero, D., Skehan, P., Shoemaker R., Paull, K., Vistica, D., Hose, C., Langley, j., Cronise, P., Vaigro-Wolff, A., Gray-Goodrich, M., Campbell, H., Mayo, J and Boyd, M. (1991). Feasibility of a high-flux anticancer drug screen using a diverse panel of cultured human tumor cell lines. J. Natl. Cancer Inst. 83, 757-766.) using 96-well tissue culture plates. The 100 μl of cell suspension was added to each well of the 96-well tissue culture plate. The cells were incubated for 24 hours. Test materials in complete growth medium (100 μl) were added after 24 hours incubation to the wells containing cell suspension. The plates were further incubated for 48 hours (at 37° C. in an atmosphere of […] 90% relative humidity in a carbon dioxide incubator) after addition of test material and then the cell growth was stopped by gently layering trichloroacetic acid (TCA, 50 μl, 50%) on top of the medium in all the wells. The plates were incubated at 4° C. for one hour to fix the cells attached to the bottom of the wells. The liquid of all the wells was gently pipetted out and discarded. The plates were washed five times with distilled water to remove TCA, growth medium low molecular weight metabolites, serum proteins etc and air-dried. Cell growth was measured by staining with sulforhodamine B dye (P. Skehan, R. Storeng, D. Scudiero, A. Monks, J. McMohan, D. Vistica, J. T. Warren, H. Bokesch, S. Kenney, M. R. Boyd (1990) New colorimetric cytotoxic Assay for Anticancer—Drug Screening Journal of the National Cancer Institute 82, 1107-1112). The adsorbed dye was dissolved in Tris-Buffer (100 μl, 0.01M, pH 10.4) and plates were gently stirred for 5 minutes on a mechanical stirrer. The optical density (OD) was recorded on ELISA reader at 540 nm.
(§5) The cell growth was calculated by subtracting mean OD value of respective blank from the mean OD value of experimental set. Percent growth in presence of test material was calculated considering the growth in absence of any test material as 100% and in turn percent growth inhibition in presence of test material will be calculated.
(§6) Methodology is the same as given in example 6 except for stock solutions of 1×10^−2M was prepared instead of 20 mg/ml.

[6] = system: HCT 15; experiment: In vitro cytotoxicity (SRB), HCT 15; type: cell-based, human; conditions: 48 h
Experimental: as §3, §4, §5, §6

[7] = system: HOP-62; experiment: In vitro cytotoxicity (SRB), HOP-62; type: cell-based, human; conditions: 48 h
Experimental: as §3, §4, §5, §6

[8] = system: SiHa; experiment: In vitro cytotoxicity (SRB), SiHa; type: cell-based, human; conditions: 48 h
Experimental: as §3, §4, §5, §6

[9] = system: HT 29; experiment: In vitro cytotoxicity (SRB), HT 29; type: cell-based, human; conditions: 48 h
Experimental: as §3, §4, §5, §6

[10] = system: Colo 205; experiment: In vitro cytotoxicity (SRB), Colo 205; type: cell-based, human; conditions: 48 h
Experimental: as §3, §4, §5, §6

[11] = system: SW 620; experiment: In vitro cytotoxicity (SRB), SW 620; type: cell-based, human; conditions: 48 h
Experimental: as §3, §4, §5, §6

[12] = system: A 549; experiment: In vitro cytotoxicity (SRB), A 549; type: cell-based, human; conditions: A 549, 1 × 10^−5 M, 48 h
Experimental: as §1, §2

[13] = system: SK N MC; experiment: In vitro cytotoxicity (SRB), SK N MC; type: cell-based; conditions: Homo sapiens, 1 × 10^−5 M, 48 h, read-out: percent growth inhibition
Experimental: as §1, §2

[14] = system: NIH OVCAR5; experiment: In vitro cytotoxicity (SRB), NIH OVCAR5; type: cell-based; conditions: Homo sapiens, OVCAR-5; NIH OVCAR5, 1 × 10^−5 M, 48 h; read-out: percent growth inhibition
Experimental: as §1, §2

[15] = system: KB; experiment: In vitro cytotoxicity (SRB), KB; type: cell-based, human; conditions: 2 × 10^−5 M, 48 h
Experimental: as §1, §2

[16] = system: ZR 75-1; experiment: In vitro cytotoxicity (SRB), ZR 75-1; type: cell-based; conditions: Homo sapiens; ZR 75-1, 1 × 10^−5 M, 48 h; read-out: percent growth inhibition
Experimental: as §1, §2

[17] = system: T 47 D; experiment: In vitro cytotoxicity (SRB), T 47 D; type: cell-based; conditions: Homo sapiens, T47D, 1 × 10^−5 M, 48 h, read-out: percent growth inhibition
Experimental: as §1, §2

[18] = system: MCF-7; experiment: In vitro cytotoxicity (SRB), MCF-7; type: cell-based; conditions: Homo sapiens, MCF7; MCF-7, 1 × 10^−5 M, 48 h; read-out: percent growth inhibition
Experimental: as §1, §2

[19] = system: SNB 78; experiment: In vitro cytotoxicity (SRB), SNB 78; type: cell-based, human; conditions: SNB 78, 1 × 10^−5 M, 48 h
Experimental: as §1, §2

SMILES | percent growth inhibition [1] [%] | percent growth inhibition ([5]; SK N SH, 1 × 10^−5 M) [%] | percent growth inhibition ([5]; SK-NSH, 1 × 10^−4 M) [%] | percent growth inhibition ([5]; SK-NSH, 1 × 10^−6 M) [%] | percent growth inhibition ([6]; HCT-15, 1 × 10^−4 M) [%] | percent growth inhibition ([6]; HCT-15, 1 × 10^−5 M) [%] | percent growth inhibition ([6]; HCT-15, 1 × 10^−6 M) [%] | percent growth inhibition ([7]; HOP-62, 1 × 10^−4 M) [%] | percent growth inhibition ([7]; HOP-62, 1 × 10^−5 M) [%] | percent growth inhibition ([7]; HOP-62, 1 × 10^−6 M) [%] | percent growth inhibition ([8]; 1 × 10^−4 M) [%] | percent growth inhibition ([8]; 1 × 10^−5 M) [%] | percent growth inhibition ([8]; 1 × 10^−6 M) [%] | percent growth inhibition ([9]; HT 29, 1 × 10^−5 M) [%] | percent growth inhibition ([9]; HT-29, 1 × 10^−4 M) [%] | percent growth inhibition ([9]; HT-29, 1 × 10^−6 M) [%] | percent growth inhibition ([10]; Colo-205, 1 × 10^−4 M) [%] | percent growth inhibition ([10]; Colo-205, 1 × 10^−5 M) [%] | percent growth inhibition ([10]; Colo-205, 1 × 10^−6 M) [%] | percent growth inhibition ([11]; SW 620, 1 × 10^−5 M) [%] | other results
CO[C@@]12[C@H](COC(N)=O)C3=C(C(=O)C(C)=C(N)C3=O)N1C[C@@H]1N[C@@H]12 [Mitomycin C] | 83 |  |  |  |  |  |  |  |  |  |  |  |  |  |  |  |  |  |  |  | percent growth inhibition [2]: 31%; percent growth inhibition [3]: 59%; percent growth inhibition [4]: 69%
O=C1C[C@@H](c2ccc(O)c(O[C@@H]3O[C@H](CO)[C@@H](O)[C@H](O)[C@H]3O)c2)Oc2cc(O[C@@H]3O[C@H](CO)[C@@H](O)[C@H](O)[C@H]3O)ccc21 [Butrin] |  | 8 | 83 | 9 | 98 | 26 | 0 | 65 | 6 | 0 | 80 | 0 | 0 | 11 | 99 | 9 | 40 | 0 | 0 | 0 | percent growth inhibition ([11]; SW620, 1 × 10^−4 M): 92%; percent growth inhibition ([11]; SW620, 1 × 10^−6 M): 0%
CC/C(=C(\c1ccccc1)c1ccc(OCCN(C)C)cc1)c1ccccc1 [Tamoxifen] |  |  |  |  |  |  |  |  |  |  |  |  |  |  |  |  |  |  |  |  | percent growth inhibition [12]: 17%; inhibition [13]: 27%; inhibition [14]: 20%
O=C(/C=C/c1ccc(O)c(O[C@@H]2O[C@H](CO)[C@@H](O)[C@H](O)[C@H]2O)c1)c1ccc(O[C@@H]2O[C@H](CO)[C@@H](O)[C@H](O)[C@H]2O)cc1O [Isobutrin] |  | 25 | 93 | 0 | 99 | 21 | 0 | 65 | 0 | 0 | 50 | 0 | 0 | 10 | 94 | 0 | 74 | 0 | 0 | 0 | percent growth inhibition ([11]; SW620, 1 × 10^−4 M): 85%; percent growth inhibition ([11]; SW620, 1 × 10^−6 M): 0%
O=c1[nH]cc(F)c(=O)[nH]1 [5-Flurouracil, reference compound] |  |  |  |  |  |  |  |  |  |  |  |  |  |  |  |  |  |  |  |  | percent growth inhibition ([6]; HCT 15, 2 × 10^−5 M): 50%; percent growth inhibition [15]: 9%
COc1cccc2c1C(=O)c1c(O)c3c(c(O)c1C2=O)C[C@@](O)(C(=O)CO)C[C@@H]3O[C@H]1C[C@H](N)[C@H](O)[C@H](C)O1 [Adriamycin] | 87 |  |  |  |  |  |  |  |  |  |  |  |  | 69 |  |  |  |  |  | 59 | inhibition at 10 µM ([5]; Homo sapiens, SK N SH, 1 × 10^−5 M, read-out: percent growth inhibition): 82%; inhibition [16]: 46%; inhibition [17]: 34%; inhibition [18]: 72%; percent growth inhibition [19]: 20%; inhibition [14]: 45%

From patent US20060280817A1, “Pharmaceutical composition useful for the treatment of hepatocellular carcinoma” (priority 2005, published 2006)
